Reference: patent US20250163045A1, “COMPOUNDS FOR TREATMENT OF HAIR LOSS” (Pelage Pharmaceuticals, Inc., priority 2021, published 2025)

Assay: Solubility of compounds in topical formulations (stirred, visual dissolution)
Type: physicochemical
Conditions: for Solubility in Non-Aqueous Formulation: Non-Aqueous Formulation (50% PEG400, 15% Transcutol P, 25% ethanol, 10% DMSO)
Excerpt: Several formulations were used to evaluate the solubility of the various compounds. Although any suitable pharmaceutical formulation may be used for the compounds, formulations such as those described below are suitable for administration of the compounds to the hair or scalp of a mammal such as a human being. The formulation may be sterilized before applying to a mammal such as a human being. • A Non-Aqueous Formulation, containing 50% PEG400, 15% Transcutol® P, 25% ethanol, and 10% DMSO was manufactured using the following general process: 10 g of PEG400, 3 g of Transcutol® P, 5 g of ethanol, and 2 g of DMSO were added to a clear vial. The mixture was then stirred using a stir bar until homogenous. • Aqueous Formulation 1, containing 10% PEG400, 20% Transcutol® HP, 45% ethanol, and 25% water was manufactured using the following general process: in a large amber pyrex bottle, 1) 19.98 g of PEG400 was added; 2) 40.07 g of Transcutol® HP was added; 3) 90 g of ethanol was added; 4) 50.03 g of water was added; and 5) the mixture was stirred using a magnetic stir bar for 30 mins at 800 rpm. • Aqueous Formulation 2, containing 10% propylene glycol, 20% Transcutol® HP, 45% ethanol, and 25% water was manufactured using the following process: in a large amber pyrex bottle, 1) 10.03 g propylene glycol was added; 2) 20.03 g Transcutol® HP was added; 3) 44.99 g ethanol was added; 4) 25.02 g water was added; and 5) the mixture was stirred using a magnetic stir bar for 30 mins at 800 rpm.
The solubilities of several compounds shown below in the described formulations are indicated below.
• Aqueous Formulation 1: 0.5 mg Reference Compound and 9.9996 g Aqueous Formulation 1 (0.005% w/w) were stirred at 600 RPM for 1 hour. The Reference Compound remained undissolved in 1 hour; • Aqueous Formulation 2: 0.5 mg Reference Compound and 10.0006 g Aqueous Formulation 2 (0.005% w/w) were stirred at 600 RPM for 1 hour. […]

## N#C/C(=C\c1cn(-c2cccc(C(F)(F)F)c2)c2ncccc12)C(=O)O [Compound 3, (E)-2-cyano-3-(1-(3-(trifluoromethyl)phenyl)-1H-pyrrolo[2,3-b]pyridin-3-yl)acrylic acid]
Dissolved / remained undissolved in 1 hour
  Solubility in Non-Aqueous Formulation: ≥ 0.1 % w/w
Remained undissolved in 24 hours
  Solubility in Non-Aqueous Formulation: < 0.2 % w/w

## N#C/C(=C\c1cn(Cc2cc(C(F)(F)F)cc(C(F)(F)F)c2)c2ncccc12)C(=O)O [Reference Compound, (E)-3-(1-(3,5-bis(trifluoromethyl)benzyl)-1H-pyrrolo[2,3-b]pyridin-3-yl)-2-cyanoacrylic acid, reference compound]
Aqueous Formulation 1 (10% PEG400, 20% Transcutol HP, 45% ethanol, 25% water), stirred at 600 RPM for 1 hour
  Solubility in Aqueous Formulation 1: < 0.005 % w/w
